What follows are compounds tested against T1, glutaminase (GAC) (Homo sapiens, UniProt O94925) (assay: glutaminase coupled endpoint assay (Example A)). Details: inhibition of glutaminase; IC50 tested in an assay of Example A or Example B.
T1 sequence (O94925 55-598 isoform O94925-3 limits assumed): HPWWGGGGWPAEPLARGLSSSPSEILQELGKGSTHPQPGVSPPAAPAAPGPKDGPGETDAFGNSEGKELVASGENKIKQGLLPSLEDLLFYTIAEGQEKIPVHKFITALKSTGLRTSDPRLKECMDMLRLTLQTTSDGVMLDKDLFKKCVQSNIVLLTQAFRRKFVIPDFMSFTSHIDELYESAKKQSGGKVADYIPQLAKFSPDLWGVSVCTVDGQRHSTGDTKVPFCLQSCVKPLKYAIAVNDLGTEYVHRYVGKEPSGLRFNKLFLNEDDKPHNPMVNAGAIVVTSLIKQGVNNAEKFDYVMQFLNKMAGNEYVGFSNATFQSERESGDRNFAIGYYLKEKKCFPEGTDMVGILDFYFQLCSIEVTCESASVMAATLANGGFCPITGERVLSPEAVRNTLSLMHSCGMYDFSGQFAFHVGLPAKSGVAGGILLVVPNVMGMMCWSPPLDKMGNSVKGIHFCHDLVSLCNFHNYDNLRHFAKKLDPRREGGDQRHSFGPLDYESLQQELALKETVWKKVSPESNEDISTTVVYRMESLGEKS
Format: biochemical
Protocol: In this example, the enzymatic activity of glutaminase is measured through a coupled endpoint assay. […] The glutamate produced is converted to 2-OG by a kinetic excess of glutamate dehydrogenase. […] However, a kinetic excess of the third coupling enzyme, diaphorase, recycles NAD from NADH to keep the NAD concentration constant during the timecourse of the assay. Diaphorase, also supplied in kinetic excess, oxidizes NADH produced by GDH back to NAD with the concomitant reduction of rezasurin to the highly fluorescent resorufin. […] A reduction in the signal indicates inhibition of some component of the coupled enzyme system. Prospective hits are counterscreened against GDH/diaphorase alone to remove hits to the coupling enzyme system in a second assay.
2. […] Add 1 μl a compound in 100% DMSO 2. Add 40 μl of Enzyme Mix and incubate for 60 minute at room temperature 3. Add 10 μl of Substrate Mix to start reaction 4.
For O=C(Nc1nnc(CCSCCc2nnc(NC(=O)Oc3ccccc3)s2)s1)Oc1ccccc1 [Compound 1, Diphenyl (5,5′-(thiobis(ethane-2,1-diyl))bis(1,3,4-thiadiazole-5,2-diyl))dicarbamate], the IC50 was 1000 to 10000 nM.
For O=C(Cc1ccccc1)Nc1nnc(CCS(=O)(=O)CCc2nnc(NC(=O)Cc3ccccc3)s2)s1 [Compound 4, N,N′-(5,5′-(sulfonylbis(ethane-2,1-diyl))bis(1,3,4-thiadiazole-5,2-diyl))bis(2-phenylacetamide)], the IC50 was less than 100 nM.
In the case of O=C(Cc1ccccc1)Nc1nnc(CCCSCc2nnc(NC(=O)Cc3ccccc3)s2)s1 [Compound 6, 2-Phenyl-N-(5-(3-(((5-(2-phenylacetamido)-1,3,4-thiadiazol-2-yl)methyl)thio)propyl)-1,3,4-thiadiazol-2-yl)acetamide], the IC50 is reported as 500 to 1000 nM.
Compound O=C(Cc1ccccc1)Nc1nnc(CC[S+]([O-])CCc2nnc(NC(=O)Cc3ccccc3)s2)s1 [Compound 7, N,N′-(5,5′-(sulfinylbis(ethane-2,1-diyl))bis(1,3,4-thiadiazole-5,2-diyl))bis(2-phenyl Acetamide)] has an IC50 of 100 to 500 nM.
Work on O=C(Nc1nnc(CCSCCc2nnc(NC(=O)OC3CCCCC3)s2)s1)OC1CCCCC1 [Compound 8, Dicyclohexyl (5,5′-(thiobis(ethane-2,1-diyl))bis(1,3,4-thiadiazole-5,2-diyl))dicarbamate] yielded an IC50 of 500 to 1000 nM.
c1ccc(CCNc2nnc(CCSCCc3nnc(NCCc4ccccc4)s3)s2)cc1 [Compound 9, 5,5′-(thiobis(ethane-2,1-diyl))bis(N-phenethyl-1,3,4-thiadiazol-2-amine)] was tested, and the IC50 was 1000 to 10000 nM.
O=C(Cc1cccnc1)Nc1nnc(CCCCCc2nnc(NC(=O)Cc3cccnc3)s2)s1 [Compound 10, N,N′-(5,5′-(pentane-1,5-diyl)bis(1,3,4-thiadiazole-5,2-diyl))bis(2-(pyridin-3-yl)acetamide)] showed an IC50 of 100 to 500 nM.
O=C(Cc1ccccn1)Nc1nnc(CCCCCc2nnc(NC(=O)Cc3ccccn3)s2)s1 [Compound 11, N,N′-(5,5′-(pentane-1,5-diyl)bis(1,3,4-thiadiazole-5,2-diyl))bis(2-(pyridin-2-yl)acetamide)] showed an IC50 of 100 to 500 nM.
Work on O=C(Cc1ccccc1)Nc1nnc(CCCCCCc2nnc(NC(=O)Cc3ccccc3)s2)s1 [Compound 12, N,N′-(5,5′-(hexane-1,6-diyl)bis(1,3,4-thiadiazole-5,2-diyl))bis(2-phenylacetamide)] yielded an IC50 of 1000 to 10000 nM.
O=C(Cc1ccccn1)Nc1nnc(CCS(=O)(=O)CCc2nnc(NC(=O)Cc3ccccn3)s2)s1 [Compound 13, N,N′-(5,5′-(sulfonylbis(ethane-2,1-diyl))bis(1,3,4-thiadiazole-5,2-diyl))bis(2-(pyridin-2-yl)acetamide)] gave an IC50 of less than 100 nM.
Compound O=C(Cc1cccnc1)Nc1nnc(CCS(=O)(=O)CCc2nnc(NC(=O)Cc3cccnc3)s2)s1 [Compound 14, N,N′-(5,5′-(sulfonylbis(ethane-2,1-diyl))bis(1,3,4-thiadiazole-5,2-diyl))bis(2-(pyridin-3-yl)acetamide)] has an IC50 of less than 100 nM.
In the case of CC(C)(C)OC(=O)Nc1nnc(CCS(=O)(=O)CCc2nnc(NC(=O)OC(C)(C)C)s2)s1 [Compound 15, Di-tert-butyl (5,5′-(sulfonylbis(ethane-2,1-diyl))bis(1,3,4-thiadiazole-5,2-diyl))dicarbamate], the IC50 is reported as 100 to 500 nM.
In the case of O=C(Cc1ccccn1)Nc1nnc(CCCCCCc2nnc(NC(=O)Cc3ccccn3)s2)s1 [Compound 16, N,N′-(5,5′-(hexane-1,6-diyl)bis(1,3,4-thiadiazole-5,2-diyl))bis(2-(pyridin-2-yl)acetamide)], the IC50 is reported as 1000 to 10000 nM.
For O=C(Cc1ccccn1)Nc1nnc(CC[S+]([O-])CCc2nnc(NC(=O)Cc3ccccn3)s2)s1 [Compound 17, N,N′-(5,5′-(sulfinylbis(ethane-2,1-diyl))bis(1,3,4-thiadiazole-5,2-diyl))bis(2-(pyridin-2-yl)acetamide)], the IC50 was 100 to 500 nM.
For CN(C(=O)Nc1nnc(CCSCCc2nnc(NC(=O)N(C)c3ccccc3)s2)s1)c1ccccc1 [Compound 18, 1,1′-(5,5′-(thiobis(ethane-2,1-diyl))bis(1,3,4-thiadiazole-5,2-diyl))bis(3-methyl-3-phenylurea)], the IC50 was 1000 to 10000 nM.
O=C(Nc1nnc(CCS(=O)(=O)CCc2nnc(NC(=O)OCc3ccccc3)s2)s1)OCc1ccccc1 [Compound 19, Dibenzyl (5,5′-(sulfonylbis(ethane-2,1-diyl))bis(1,3,4-thiadiazole-5,2-diyl))dicarbamate] was tested, and the IC50 was less than 100 nM.
Work on O=C(CCc1ccccc1)Nc1nnc(CCCCCc2nnc(NC(=O)CCc3ccccc3)s2)s1 [Compound 20, N,N′-(5,5′-(pentane-1,5-diyl)bis(1,3,4-thiadiazole-5,2-diyl))bis(3-phenylpropanamide)] yielded an IC50 of 1000 to 10000 nM.
O=C(CCc1ccccc1)Nc1nnc(CCS(=O)(=O)CCc2nnc(NC(=O)CCc3ccccc3)s2)s1 [Compound 21, N,N′-(5,5′-(2,2′-sulfonylbis(ethane-2,1-diyl))bis(1,3,4-thiadiazole-5,2-diyl))bis(3-phenylpropanamide)] showed an IC50 of less than 100 nM.
Work on CC(C)COC(=O)Nc1nnc(CCS(=O)(=O)CCc2nnc(NC(=O)OCC(C)C)s2)s1 [Compound 22, Diisobutyl (5,5′-(sulfonylbis(ethane-2,1-diyl))bis(1,3,4-thiadiazole-5,2-diyl))dicarbamate] yielded an IC50 of 100 to 500 nM.
CC(C)OC(=O)Nc1nnc(CCS(=O)(=O)CCc2nnc(NC(=O)OC(C)C)s2)s1 [Compound 23, Diisopropyl (5,5′-(sulfonylbis(ethane-2,1-diyl))bis(1,3,4-thiadiazole-5,2-diyl))dicarbamate] gave an IC50 of 500 to 1000 nM.
O=C(Cc1ccccc1)Nc1nnc(CC[S+]([O-])CCC(=O)Nc2nnc(Cc3ccccc3)s2)s1 (stereo not drawn) [Compound 24] showed an IC50 of 1000 to 10000 nM.
Work on O=C(Cc1ccccn1)Nc1nnc(CC/C=C/CCc2nnc(NC(=O)Cc3ccccn3)s2)s1 [Compound 25] yielded an IC50 of 1000 to 10000 nM.
O=C(Cc1cccnc1)Nc1nnc(CCCc2nnc(NC(=O)Cc3cccnc3)s2)s1 [Compound 26, N,N′-(5,5′-(propane-1,3-diyl)bis(1,3,4-thiadiazole-5,2-diyl))bis(2-(pyridin-3-yl)acetamide)] showed an IC50 of 100 to 500 nM.
O=C(Cc1cccnc1)Nc1nnc(C/C=C/Cc2nnc(NC(=O)Cc3cccnc3)s2)s1 [Compound 27, (E)-N,N′-(5,5′-(but-2-ene-1,4-diyl)bis(1,3,4-thiadiazole-5,2-diyl))bis(2-(pyridin-3-yl)acetamide)] gave an IC50 of less than 100 nM.
O=C(Cc1cccnc1)Nc1nnc(CCCCc2nnc(NC(=O)Cc3cccnc3)s2)s1 [Compound 28, N,N′-(5,5′-(butane-1,4-diyl)bis(1,3,4-thiadiazole-5,2-diyl))bis(2-(pyridin-3-yl)acetamide)] showed an IC50 of less than 100 nM.
Compound NCCOc1ccc(CC(=O)Nc2nnc(CCS(=O)(=O)CCc3nnc(NC(=O)Cc4ccccc4)s3)s2)cc1 [Compound 29, 2-(4-(2-aminoethoxy)phenyl)-N-(5-(2-((2-(5-(2-phenylacetamido)-1,3,4-thiadiazol-2-yl)ethyl)sulfonyl)ethyl)-1,3,4-thiadiazol-2-yl)acetamide] has an IC50 of less than 100 nM.
For COc1ccc(CC(=O)Nc2nnc(CCS(=O)(=O)CCc3nnc(NC(=O)Cc4ccc(OC)c(OC)c4)s3)s2)cc1OC [Compound 30, N,N′-(5,5′-(2,2′-sulfonylbis(ethane-2,1-diyl))bis(1,3,4-thiadiazole-5,2-diyl))bis(2-(3,4-dimethoxyphenyl)acetamide)], the IC50 was less than 100 nM.
For COc1ccc(CC(=O)Nc2nnc(CCS(=O)(=O)CCc3nnc(NC(=O)Cc4ccc(OC)cc4)s3)s2)cc1 [Compound 31, N,N′-(5,5′-(2,2′-sulfonylbis(ethane-2,1-diyl))bis(1,3,4-thiadiazole-5,2-diyl))bis(2-(4-methoxyphenyl)acetamide)], the IC50 was less than 100 nM.
Compound O=C(Cc1ccccc1)Nc1nnc(CSCc2nnc(NC(=O)Cc3ccccc3)s2)s1 [Compound 32] has an IC50 of 1000 to 10000 nM.
O=C(CC1CCCCO1)Nc1nnc(CCS(=O)(=O)CCc2nnc(NC(=O)CC3CCCCO3)s2)s1 (stereo not drawn) [Compound 33, N,N′-(5,5′-(2,2′-sulfonylbis(ethane-2,1-diyl))bis(1,3,4-thiadiazole-5,2-diyl))bis(2-(tetrahydro-2H-pyran-2-yl)acetamide)] showed an IC50 of 100 to 500 nM.
In the case of Cc1nc2ccc(C(=O)Nc3nnc(CCSCCc4nnc(NC(=O)c5ccc6nc(C)[nH]c6c5)s4)s3)cc2[nH]1 [Compound 34, N,N′-(5,5′-(2,2′-thiobis(ethane-2,1-diyl))bis(1,3,4-thiadiazole-5,2-diyl))bis(2-methyl-1H-benzo[d]imidazole-6-carboxamide)], the IC50 is reported as less than 100 nM.
In the case of O=C(CCc1cccnc1)Nc1nnc(CCS(=O)(=O)CCc2nnc(NC(=O)CCc3cccnc3)s2)s1 [Compound 35], the IC50 is reported as 100 to 500 nM.
In the case of NCCCOc1ccc(CC(=O)Nc2nnc(CCS(=O)(=O)CCc3nnc(NC(=O)Cc4ccccc4)s3)s2)cc1 [Compound 36, 2-(4-(3-aminopropoxy)phenyl)-N-(5-(2-((2-(5-(2-phenylacetamido)-1,3,4-thiadiazol-2-yl)ethyl)sulfonyl)ethyl)-1,3,4-thiadiazol-2-yl)acetamide], the IC50 is reported as less than 100 nM.

Source: US10414740B2, “Glutaminase inhibitors and method of use” (Agios Pharmaceuticals, Inc., priority 2012, dated 2019)
